Experimental data taken from patent US8895733B2 (Novartis AG, priority 2010, dated 2014).

molecular target: T1, Nav 1.7 (Homo sapiens, UniProt Q15858); test: Whole-cell voltage clamp electrophysiology, automated patch clamp (marker c in Table of Examples); format: cell-based; conditions: marker c: Automated patch clamp data; read-out: Nav 1.7 activity
T1 construct: expressed in transfected cells
Excerpt: a.IonWork Quattro data, b=Manual patch clamp data, c=Automated patch clamp data M=Method
Whole-Cell Voltage Clamp Electrophysiology Assay
Patch-clamp electrophysiology is considered the gold standard technique for investigation of ion channel function and pharmacology. Using this method, sodium channel currents can be measured in cells, which stably (or transiently) express the sodium channel subtype of interest. Application of compounds during such experiments provides a functional measure of the activity and potency of compounds affecting the ion channel of interest.
Electrophysiological studies can be performed using automated or manual patch-clamp techniques. Automated patch-clamp instruments suitable for this work include the Ion Works HT (MDS), Ion Works Quattro (MDS), PatchLiner (Nanion technologies), Port-A-Patch (Nanion technologies), QPatch (Sophion) or any other suitable platform.
For recording in automated patch-clamp instruments, cells expressing the voltage-gated sodium channel subtype of interest are dispensed in appropriate chips (plates with more than one recording chambers each containing one or more apertures to generate whole-cell patches), as provided by the manufacturer. Typically, the whole-cell perforated patch configuration is used for probing the pharmacology of compounds in automated patch-clamp electrophysiology on sodium channels. Extracellular and intracellular buffers for such experiments are composed according to the literature, or according to the instructions provided by the manufacturer of the instruments. Test solutions, which contain the compounds to be tested, are applied to the cells expressing the sodium channel of interest by a pipetting system, typically integrated into the robots.
A suitable voltage stimulus protocol is used to activate voltage-gated sodium channel proteins of interest. A typical stimulus protocol may consist of sweeps of sequential voltage pulses starting from a holding potential (i.e. −65 mV), to a more positive and depolarising test pulse potential (i.e. −10 mV) and finally to a more negative and hyperpolarising potential (i.e. −100 mV). According to the biophysics of the voltage-gated ion channel of interest and interest in channel configuration the voltages and durations of the pulses as well as the overall frequency of sweeps applied might vary. Accordingly, a stimulus protocol was designed to assess compounds due to their potential to block NaV1.7 channels primarily in inactivated state. Selectivity over other voltage-gated sodium channel members was assessed by protocols that reflect the native function of the channels (i.e. heart rate or firing of neurons).

T1 sequence (Q15858 whole entry): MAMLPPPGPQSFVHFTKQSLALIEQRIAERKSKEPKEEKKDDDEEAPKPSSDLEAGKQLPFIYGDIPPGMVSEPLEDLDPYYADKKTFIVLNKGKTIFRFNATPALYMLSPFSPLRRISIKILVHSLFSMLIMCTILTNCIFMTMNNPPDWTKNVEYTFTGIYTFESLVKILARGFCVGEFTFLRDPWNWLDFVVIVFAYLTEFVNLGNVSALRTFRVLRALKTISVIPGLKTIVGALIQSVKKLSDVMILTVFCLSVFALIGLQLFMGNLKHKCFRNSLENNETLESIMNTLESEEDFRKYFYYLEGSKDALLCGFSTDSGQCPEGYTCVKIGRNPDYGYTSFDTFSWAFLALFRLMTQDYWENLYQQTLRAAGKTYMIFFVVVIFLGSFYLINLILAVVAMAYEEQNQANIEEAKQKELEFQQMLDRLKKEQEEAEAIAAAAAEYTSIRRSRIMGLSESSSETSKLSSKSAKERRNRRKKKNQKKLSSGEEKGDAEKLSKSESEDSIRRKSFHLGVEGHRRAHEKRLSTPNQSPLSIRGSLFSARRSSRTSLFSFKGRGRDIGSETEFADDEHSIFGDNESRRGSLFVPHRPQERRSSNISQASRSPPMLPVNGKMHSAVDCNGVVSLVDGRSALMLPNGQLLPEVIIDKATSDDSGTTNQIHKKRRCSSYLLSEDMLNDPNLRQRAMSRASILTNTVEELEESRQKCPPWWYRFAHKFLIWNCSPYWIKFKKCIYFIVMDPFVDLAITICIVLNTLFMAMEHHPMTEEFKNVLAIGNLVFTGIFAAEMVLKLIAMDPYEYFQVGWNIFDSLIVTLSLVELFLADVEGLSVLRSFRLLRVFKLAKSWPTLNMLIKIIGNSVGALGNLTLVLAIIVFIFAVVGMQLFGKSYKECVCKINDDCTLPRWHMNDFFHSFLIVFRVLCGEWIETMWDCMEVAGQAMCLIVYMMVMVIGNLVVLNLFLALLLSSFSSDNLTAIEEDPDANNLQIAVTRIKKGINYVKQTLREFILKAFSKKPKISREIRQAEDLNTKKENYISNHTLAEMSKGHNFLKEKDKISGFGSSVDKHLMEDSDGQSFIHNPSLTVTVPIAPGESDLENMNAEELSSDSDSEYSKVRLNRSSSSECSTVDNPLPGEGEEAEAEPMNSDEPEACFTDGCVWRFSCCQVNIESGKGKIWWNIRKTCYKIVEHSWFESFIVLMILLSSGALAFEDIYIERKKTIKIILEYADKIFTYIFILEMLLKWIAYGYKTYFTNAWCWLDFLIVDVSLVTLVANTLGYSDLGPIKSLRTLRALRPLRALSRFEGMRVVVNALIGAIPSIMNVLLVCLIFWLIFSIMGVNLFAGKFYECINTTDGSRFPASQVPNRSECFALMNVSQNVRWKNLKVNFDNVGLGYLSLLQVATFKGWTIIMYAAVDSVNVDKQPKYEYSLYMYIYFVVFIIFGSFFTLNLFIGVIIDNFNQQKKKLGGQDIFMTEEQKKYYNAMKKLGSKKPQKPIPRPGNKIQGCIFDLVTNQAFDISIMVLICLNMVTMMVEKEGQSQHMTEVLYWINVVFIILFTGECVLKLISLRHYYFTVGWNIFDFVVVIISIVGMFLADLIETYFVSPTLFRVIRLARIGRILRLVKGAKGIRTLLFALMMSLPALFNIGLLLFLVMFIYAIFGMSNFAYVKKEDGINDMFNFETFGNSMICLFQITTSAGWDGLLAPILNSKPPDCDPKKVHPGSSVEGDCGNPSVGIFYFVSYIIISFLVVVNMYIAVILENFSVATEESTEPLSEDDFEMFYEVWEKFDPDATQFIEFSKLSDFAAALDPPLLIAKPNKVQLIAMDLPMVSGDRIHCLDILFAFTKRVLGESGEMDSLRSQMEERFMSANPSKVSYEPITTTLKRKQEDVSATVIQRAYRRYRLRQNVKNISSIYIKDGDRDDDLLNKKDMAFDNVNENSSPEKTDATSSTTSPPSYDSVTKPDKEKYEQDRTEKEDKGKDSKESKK

| SMILES | IC50 [nM] |
| --- | --- |
| CN(c1ccccc1)c1nc(N)nc(-c2noc(-c3ccc(C#N)nc3)n2)n1 [Example 78, 5-{3-[4-Amino-6-(methyl-phenyl-amino)-[1,3,5]triazin-2-yl]-[1,2,4]oxadiazol-5-yl}-pyridine-2-carbonitrile] | 1660 |
| CN(c1ccccc1)c1nc(N)nc(-c2noc(-c3ccc(C(=O)N4CCOCC4)s3)n2)n1 [Example 79, (5-{3-[4-Amino-6-(methyl-phenyl-amino)-[1,3,5]triazin-2-yl]-[1,2,4]oxadiazol-5-yl}-thiophen-2-yl)-morpholin-4-yl-methanone] | 977 |
| CN(c1ccccc1)c1nc(N)nc(-c2noc(-c3ccccc3C#N)n2)n1 [Example 80, 2-{3-[4-Amino-6-(methyl-phenyl-amino)-[1,3,5]triazin-2-yl]-[1,2,4]oxadiazol-5-yl}-benzonitrile] | 260 |
| COc1cccc(-c2nc(-c3nc(N)nc(N(C)c4cccc(Cl)c4)n3)no2)c1 [Example 83, N-(3-Chloro-phenyl)-6-[5-(3-methoxy-phenyl)-[1,2,4]oxadiazol-3-yl]-N-methyl-[1,3,5]triazine-2,4-diamine] | 691 |
| COc1cccc(-c2nc(-c3nc(N)nc(N(C)c4ccccc4F)n3)no2)c1 [Example 88, N-(2-Fluoro-phenyl)-6-[5-(3-methoxy-phenyl)-[1,2,4]oxadiazol-3-yl]-N-methyl-[1,3,5]triazine-2,4-diamine] | 361 |
| COc1ccccc1-c1nc(-c2nc(N)nc(N(C)c3ccccc3F)n2)no1 [Example 89, N-(2-Fluoro-phenyl)-6-[5-(2-methoxy-phenyl)-[1,2,4]oxadiazol-3-yl]-N-methyl-[1,3,5]triazine-2,4-diamine] | 200 |
| Cc1ccc(-c2nc(-c3nc(N)nc(N(C)c4ccccc4F)n3)no2)o1 [Example 91, N-(2-Fluoro-phenyl)-N-methyl-6-[5-(5-methyl-furan-2-yl)-[1,2,4]oxadiazol-3-yl]-[1,3,5]triazine-2,4-diamine] | 547 |
| COc1ccccc1-c1nc(-c2nc(N)nc(N(C)c3cccc(C)c3)n2)no1 [Example 92, 6-[5-(2-Methoxy-phenyl)-[1,2,4]oxadiazol-3-yl]-N-methyl-N-m-tolyl-[1,3,5]triazine-2,4-diamine] | 511 |
| CCN(c1ccccc1)c1nc(N)nc(-c2noc(-c3cccc(OC)c3)n2)n1 [Example 94, N-Ethyl-6-[5-(3-methoxy-phenyl)-[1,2,4]oxadiazol-3-yl]-N-phenyl-[1,3,5]triazine-2,4-diamine] | 813 |
| CCN(c1ccccc1)c1nc(N)nc(-c2noc(-c3ccc(C)o3)n2)n1 [Example 97, N-Ethyl-6-[5-(5-methyl-furan-2-yl)-[1,2,4]oxadiazol-3-yl]-N-phenyl-[1,3,5]triazine-2,4-diamine] | 1300 |
| Cc1cccc(N(C)c2nc(N)nc(-c3noc(-c4ccco4)n3)n2)c1F [Example 107, N-(2-Fluoro-3-methyl-phenyl)-6-(5-furan-2-yl-[1,2,4]oxadiazol-3-yl)-N-methyl-[1,3,5]triazine-2,4-diamine] | 749 |
| Nc1nc(Nc2cc(F)ccc2F)nc(-c2noc(-c3ccco3)n2)n1 [Example 109, N-(2,5-Difluoro-phenyl)-6-(5-furan-2-yl-[1,2,4]oxadiazol-3-yl)-[1,3,5]triazine-2,4-diamine] | 369 |
| CN(c1ccccc1)c1nc(N)nc(-c2noc(-c3ccncc3)n2)n1 [Example 114, N-Methyl-N-phenyl-6-(5-pyridin-4-yl-[1,2,4]oxadiazol-3-yl)-[1,3,5]triazine-2,4-diamine] | 606 |
| CN(c1ccccc1)c1nc(N)nc(-c2noc(-c3cccnc3)n2)n1 [Example 115, N-Methyl-N-phenyl-6-(5-pyridin-3-yl-[1,2,4]oxadiazol-3-yl)-[1,3,5]triazine-2,4-diamine] | 1320 |
| CN(c1ccccc1)c1nc(N)nc(-c2noc(-c3ccncn3)n2)n1 [Example 120, N-Methyl-N-phenyl-6-(5-pyrimidin-4-yl-[1,2,4]oxadiazol-3-yl)-[1,3,5]triazine-2,4-diamine] | 2240 |
| Nc1nc(-c2noc(-c3ccco3)n2)nc(N(CC2CC2)c2ccccc2)n1 [Example 121, N-Cyclopropylmethyl-6-(5-furan-2-yl-[1,2,4]oxadiazol-3-yl)-N-phenyl-[1,3,5]triazine-2,4-diamine] | 395 |
| CN(c1ccccc1)c1nc(N)nc(-c2noc(-c3ccccc3F)n2)n1 [Example 124, 6-[5-(2-Fluoro-phenyl)-[1,2,4]oxadiazol-3-yl]-N-methyl-N-phenyl-[1,3,5]triazine-2,4-diamine] | 428 |
| CN(c1ccccc1)c1nc(N)nc(-c2noc(-c3cnco3)n2)n1 [Example 127, N-Methyl-6-(5-oxazol-5-yl-[1,2,4]oxadiazol-3-yl)-N-phenyl-[1,3,5]triazine-2,4-diamine] | 2080 |
| CN(c1ccccc1)c1nc(N)nc(-c2noc(-c3ncco3)n2)n1 [Example 128, N-Methyl-6-(5-oxazol-2-yl-[1,2,4]oxadiazol-3-yl)-N-phenyl-[1,3,5]triazine-2,4-diamine] | 1510 |

Further lines, results first:

| IC50 [nM] | SMILES |
| --- | --- |
| 170 | CN(c1cccc(Cl)c1)c1nc(N)nc(-c2noc(-c3ccccc3Cl)n2)n1 [Example 84, N-(3-Chloro-phenyl)-6-[5-(2-chloro-phenyl)-[1,2,4]oxadiazol-3-yl]-N-methyl-[1,3,5]triazine-2,4-diamine] |
| 1270 | COc1cccc(-c2nc(-c3nc(N)nc(N(C)c4cccc(F)c4)n3)no2)c1 [Example 85, N-(3-Fluoro-phenyl)-6-[5-(3-methoxy-phenyl)-[1,2,4]oxadiazol-3-yl]-N-methyl-[1,3,5]triazine-2,4-diamine] |
| 3490 | Cc1ccc(-c2nc(-c3nc(N)nc(N(C)c4cccc(F)c4)n3)no2)o1 [Example 87, N-(3-Fluoro-phenyl)-N-methyl-6-[5-(5-methyl-furan-2-yl)-[1,2,4]oxadiazol-3-yl]-[1,3,5]triazine-2,4-diamine] |
| 415 | CN(c1nc(N)nc(-c2noc(-c3cccs3)n2)n1)c1ccccc1F [Example 90, N-(2-Fluoro-phenyl)-N-methyl-6-(5-thiophen-2-yl-[1,2,4]oxadiazol-3-yl)-[1,3,5]triazine-2,4-diamine] |
| 931 | Cc1cccc(N(C)c2nc(N)nc(-c3noc(-c4cccs4)n3)n2)c1 [Example 93, N-Methyl-6-(5-thiophen-2-yl-[1,2,4]oxadiazol-3-yl)-N-m-tolyl-[1,3,5]triazine-2,4-diamine] |
| 518 | CCN(c1ccccc1)c1nc(N)nc(-c2noc(-c3cccs3)n2)n1 [Example 96, N-Ethyl-N-phenyl-6-(5-thiophen-2-yl-[1,2,4]oxadiazol-3-yl)-[1,3,5]triazine-2,4-diamine] |
| 318 | COc1ccccc1-c1nc(-c2nc(N)nc(N(C)c3cccc(F)c3)n2)no1 [Example 98, N-(3-Fluoro-phenyl)-6-[5-(2-methoxy-phenyl)-[1,2,4]oxadiazol-3-yl]-N-methyl-[1,3,5]triazine-2,4-diamine] |
| 1130 | CN(c1cccc(F)c1)c1nc(N)nc(-c2noc(-c3cccs3)n2)n1 [Example 99, N-(3-Fluoro-phenyl)-N-methyl-6-(5-thiophen-2-yl-[1,2,4]oxadiazol-3-yl)-[1,3,5]triazine-2,4-diamine] |
| 206 | CN(c1cccc(Cl)c1)c1nc(N)nc(-c2noc(-c3cccs3)n2)n1 [Example 101, N-(3-Chlorophenyl)-N-methyl-6-(5-thiophen-2-yl-[1,2,4]oxadiazol-3-yl)-[1,3,5]triazine-2,4-diamine] |
| 489 | Cc1ccc(-c2nc(-c3nc(N)nc(N(C)c4cccc(Cl)c4)n3)no2)o1 [Example 102, N-(3-Chloro-phenyl)-N-methyl-6-[5-(5-methyl-furan-2-yl)-[1,2,4]oxadiazol-3-yl]-[1,3,5]triazine-2,4-diamine] |
| 644 | CN(c1ccccc1)c1nc(N)nc(-c2noc(-c3ccc(F)cc3)n2)n1 [Example 122, 6-[5-(4-Fluoro-phenyl)-[1,2,4]oxadiazol-3-yl]-N-methyl-N-phenyl-[1,3,5]triazine-2,4-diamine] |
| 929 | CN(c1ccccc1)c1nc(N)nc(-c2noc(-c3cccc(F)c3)n2)n1 [Example 123, 6-[5-(3-Fluoro-phenyl)-[1,2,4]oxadiazol-3-yl]-N-methyl-N-phenyl-[1,3,5]triazine-2,4-diamine] |
| 782 | Cc1ccsc1-c1nc(-c2nc(N)nc(N(C)c3ccccc3)n2)no1 [Example 126, N-Methyl-6-[5-(3-methyl-thiophen-2-yl)-[1,2,4]oxadiazol-3-yl]-N-phenyl-[1,3,5]triazine-2,4-diamine] |

same assay, conditions: no platform marker printed in the cell; read-out: Nav 1.7 activity

| IC50 [nM] | SMILES |
| --- | --- |
| 1620 | Nc1nc(-c2noc(-c3ccco3)n2)nc(N2CCCc3ccccc32)n1 [Example 116, 4-(3,4-Dihydroquinolin-1-yl)-6-(5-furan-2-yl-[1,2,4]oxadiazol-3-yl)-[1,3,5]triazine-2-amine] |
